{"source": "BindingDB's records for doi:10.1016/s0960-894x(01)00648-5", "about": "(Merck Research Laboratories, 2001)"}
{"target": "T1, Genome polyprotein (Human rhinovirus sp., UniProt Q04107)", "T1 sequence (Q04107 whole entry)": "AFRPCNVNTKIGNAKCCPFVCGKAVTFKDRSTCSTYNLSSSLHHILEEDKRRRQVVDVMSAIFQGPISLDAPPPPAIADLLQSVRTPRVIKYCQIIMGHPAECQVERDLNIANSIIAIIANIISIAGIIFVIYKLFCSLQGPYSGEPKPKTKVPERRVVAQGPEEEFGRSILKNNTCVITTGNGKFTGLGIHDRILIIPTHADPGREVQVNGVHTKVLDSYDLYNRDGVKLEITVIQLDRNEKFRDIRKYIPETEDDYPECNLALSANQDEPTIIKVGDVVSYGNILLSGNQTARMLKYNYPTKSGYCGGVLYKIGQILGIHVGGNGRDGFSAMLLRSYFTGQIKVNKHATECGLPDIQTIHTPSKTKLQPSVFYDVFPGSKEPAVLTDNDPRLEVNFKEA", "assay": "ChEBML_160894", "from_the_text": "(§1) Inhibitory activity against HRV 3Cpro using HPLC assay", "units": {"IC50": "µM"}}
{"smiles": "O=C1C=Cc2ccccc2C1=O", "note": "[1,2-dihydronaphthalene-1,2-dione]", "IC50": 8.2}
{"smiles": "Cc1cc(O)c2c(c1)C(=O)c1cc(O)cc(O)c1C2=O", "note": "[1,3,8-trihydroxy-6-methylanthra-9,10-quinone]", "IC50": "> 150"}
{"smiles": "CC1Cc2cc(O)c3c(c2C(=O)O1)C(=O)C=C(C1=CC(=O)c2c(c(O)cc4c2C(=O)OC(C)C4)C1=O)C3=O", "note": "(stereo not drawn) [9,9'-Dihydroxy-2,2'-dimethyl-1,2,1',2'-tetrahydro-[7,7']bi[3-oxa-phenanthrenyl]-4,5,8,4',5',8'-hexaone]", "IC50": 6}
{"target": "T2, Genome polyprotein (Human rhinovirus sp., UniProt Q4U254)", "T2 sequence (Q4U254 whole entry)": "T1 sequence (Q04107 whole entry)", "assay": "ChEBML_160894", "from_the_text": "as §1", "units": {"IC50": "µM"}}
{"smiles": "O=C1C(=O)c2ccccc2-c2ccccc21", "IC50": 1.4}
{"smiles": "COC1=CC(=O)c2ccccc2C1=O", "IC50": 26}
{"smiles": "O=C1CC(=O)c2ccccc2C1=O", "IC50": "> 150"}
{"smiles": "O=C1C=CC(=O)c2ccccc21", "note": "[1,4-dihydronaphthalene-1,4-dione]", "IC50": 21}
{"smiles": "COC1=CC(=O)c2ccc(C)cc2C1=O", "note": "[2-Methoxy-7-methyl-[1,4]naphthoquinone]", "IC50": 10.5}
{"smiles": "COC1=CC(=O)c2c(O)cc(C)cc2C1=O", "note": "[2-methoxy-7-methyljuglone]", "IC50": 2.4}
{"smiles": "Cc1cc(O)c2c(c1)C(=O)C=CC2=O", "note": "[5-Hydroxy-7-methyl-[1,4]naphthoquinone]", "IC50": 6.4}
{"smiles": "COC1=CC(=O)c2c(cc(C)c(C(C)=O)c2O)C1=O", "note": "[6-Acetyl-5-hydroxy-2-methoxy-7-methyl-[1,4]naphthoquinone]", "IC50": 4.6}
{"smiles": "CC(=O)c1c(C)cc2c(c1O)C(=O)C(=O)CC2=O", "note": "[7-Acetyl-2,8-dihydroxy-6-methyl-[1,4]naphthoquinone]", "IC50": "> 150"}
{"smiles": "COC1=CC(=O)c2cc(C)c(C(C)=O)c(OC)c2C1=O", "note": "[7-Acetyl-2,8-dimethoxy-6-methyl-[1,4]naphthoquinone]", "IC50": 124}
{"smiles": "C[C@@H]1CC2=C(C(=O)c3c(O)cc(O)cc3C2=O)[C@@H](O)O1", "note": "[(1S,3R)-1,7,9-Trihydroxy-3-methyl-3,4-dihydro-1H-benzo[g]isochromene-5,10-dione]", "IC50": 47}
{"smiles": "COC1=CC(=O)c2c(cc(C)c(C(C)=O)c2OC(C)=O)C1=O", "note": "[Acetic acid 2-acetyl-6-methoxy-3-methyl-5,8-dioxo-5,8-dihydro-naphthalen-1-yl ester]", "IC50": 8.1}
{"smiles": "COC1=CC(=O)c2c(OC(C)=O)cc(C)cc2C1=O", "note": "[Acetic acid 6-methoxy-3-methyl-5,8-dioxo-5,8-dihydro-naphthalen-1-yl ester]", "IC50": 40}
{"smiles": "O=C1C=CC(=O)c2c1ccc1c2ccc2ccccc21", "note": "[Chrysene-1,4-dione]", "IC50": 46.5}
{"smiles": "COc1cc(O)c2c(c1)C(=O)c1cc(C)cc(O)c1C2=O", "note": "[physcion]", "IC50": "> 150"}
